Measured values taken from patent publication EP0417790B1, “S-triazolo[3,4-i]purine derivatives” (Kyowa Hakko Kogyo Co., Ltd., priority 1989, dated 1991).
Read-outs that look alike come from different tables or passages of the source.

What was measured:
trachea = experiment: Passive Schultz-Dale reaction (broncho-dilatory effect) on isolated tracheal strips; conditions: Cavia porcellus; 50% relaxation of antigen (EWA, 1 µg/ml)-contracted tracheal strips of passively sensitized guinea pigs
Experimental: Guinea pigs were passively sensitized as follows. Hartley male guinea pigs weighing 350 to 500 g were injected intraperitoneally with rabbit anti-egg albumin (EWA) serum prepared by the method of Koda et al. [Folia pharmacol., Japon 66, 237, (1970)]. After 24 hours, the guinea pigs were stunned and exsanguinated, and then trachea was excised. The zig-zag strips of the trachea were prepared by the method of Emmerson and Mackay [J. Pharm. Pharmacol., 31, 798, (1979)]. The strips were suspended in Krebs-Henseleit solution at 37°C under aeration of a mixed gas of 95% oxygen and 5% carbon dioxide, and incubated for one hour. Antigen (EWA) was then introduced in the solution (final concentration; 1 µg/ml), and the contraction was measured by isotonictransducer (TD-112s, made by Nihon Kohden K.K., Japan) and recorded on a recorder (Type 3066, made by Yokogawa-Hokushin Denki, K.K. Japan). After the contraction curves reached plateau the compounds were successively added in order to get cumulative concentration-relaxation curves. Concentration of 50% relaxation rate (IC50) was calculated from the regression line, which was obtained from cumulative concentration-relaxation curves.

Hartley male guinea pigs = experiment: Experimental asthma (collapse time after antigen aerosol); assay type: in vivo; conditions: 50 mg/kg orally, 1 hour before 1.5% EWA aerosol; n=3-10 mean±S.E.M.; control 254 ± 18
Experimental: Guinea pigs were passively sensitized as follows. Hartley male guinea pigs weighing 350 to 500 g were intraperitoneally injected with 1 ml of rabbit anti-egg alubmin (EWA) serum prepared by the method of Koda et al. [Folia pharmacol., Japon, 66, 237 (1970)]. The animals were treated with intraperitoneal injection of diphenhydramine (20 mg/kg) and propranolol (5 mg/kg), 30 minutes before administration of test compounds. 17 hours after the sensitization, the test compounds (50 mg/kg or 5 mg/kg) or saline (control) were orally administrated to sensitized animals. After one hour from the administration of the test compounds, the guinea pigs were placed in plastic observation box and were exposed to an aerosal antigen of 1.5% EWA.
The time until the onset of respiratory distress-like symptom [collapse time (second)] was measured as a result of experimental asthma.

male dd mice = experiment: Inhibition of platelet activating factor (PAF)-induced mortality; assay type: in vivo; conditions: Mus musculus, minimum effective dose, oral, 1 hour before 40 µg/kg PAF i.v., mortality 2 hours after PAF, read-out: PAF-induced mortality MED
Experimental: The experiment was performed by a minor modification of method of Carlson et al. [Agents and Actions, 21, 379 (1987)]. Groups each consisting of 10 male dd mice (weighing 28 to 32 g) were used, and 100 mg/kg of test compound or a saline (control) was orally administrated. One hour after the administration of test compound, 40 µg/kg of PAF (manufactured by Avanti Polar Lipids Co., Ltd.) was intravenously administered. Two hours after PAF injection, the mortality rate of the animals was observed. […]

Wistar male rats = experiment: Diuretic activity; assay type: in vivo; conditions: Rattus norvegicus, po, 25 mg/kg orally, urine taken for 6 hours
Experimental: Wistar male rats weighing 150 to 300 g were used after fasting for 18 hours. […] The test was performed using 3 groups per test compound, and each group consists of 3 animals. The urine was metered by a measuring cylinder and electrolytes (Na^+ and K^+) in the urine were analyzed by flame photometer (model […]: Hitachi Ltd.). Parameters in Table 3 are represented by relative value for control.

male dd-mice = experiment: Acute toxicity; assay type: in vivo; conditions: Minimum lethal dose, oral, mortality observed for seven days
Experimental: The compounds were orally administrated to male dd-mice weighing 20 ± 1 g. Minimum lethal dose (MLD) was determined by observing the mortality for seven days after the administration.

mice = experiment: Scopolamine-induced amnesia, step through passive avoidance; assay type: in vivo; conditions: scopolamine 0.5 mg/kg i.p., mean ± S.E.M., controls 40.9±8.1 (Compound 41), 37.0±6.2 (Compound 51)
Experimental: Acquisition trial was performed in a manner similar to Experiment (f). Amnestic treatment was performed by intraperitoneal administration of scopolamine (0.5 mg/kg), 30 minutes prior to the acquisition trial. The test trial was performed 24 hours after the acquisition trial and its latency was determined as in Experiment (f).
Preparation of administrated test compound was performed in a manner similar to Experiment (f). Test compound and the saline were orally administered 60 minutes before the acquisition trial, respectively.

[1] = relative value for control (1.00), read-out: Na^+/K^+
[2] = relative value for control (100), read-out: Excretion of K^+
[3] = relative value for control (100), read-out: Excretion of Na^+
[4] = relative value for control (100), read-out: Urine volume

| Compound | IC50 (trachea) | Experimental asthma Collapse time (Hartley male guinea pigs) | minimal effective dose (male dd mice) | response vs control in vivo at 25 mg/kg (Wistar male rats; [1]) | response vs control in vivo at 25 mg/kg (Wistar male rats; [2]) | response vs control in vivo at 25 mg/kg (Wistar male rats; [3]) | response vs control in vivo at 25 mg/kg (Wistar male rats; [4]) | MLD (male dd-mice) | Latency of test trial (mice; 0.625 mg/kg orally 60 minutes before acquisition trial) | Latency of test trial (mice; 2.5 mg/kg orally 60 minutes before acquisition trial) | Latency of test trial (mice; 10 mg/kg orally 60 minutes before acquisition trial) | Latency of test trial (mice; 40 mg/kg orally 60 minutes before acquisition trial) |
| --- | --- | --- | --- | --- | --- | --- | --- | --- | --- | --- | --- | --- |
| CCCn1c(=O)n2c(C)nnc2c2[nH]cnc21 [Compound 25, 6,9-Dihydro-3-methyl-6-n-propyl-5H-1,2,4-triazolo[3,4-i]-purin-5-one] | 0.42 µM | 590 ± 9.8 s | 100 mg/kg | 163% | 119% | 193% | 161% | 100 mg/kg | – | – | – | – |
| CCCn1cnc2c1c1n[nH]c(=O)n1c(=O)n2CCC [Compound 44, 6,9-Di-n-propyl-2,5,6,9-tetrahydro-3H-1,2,4-triazolo[3,4-i]purin-3,5-dione] | 39.6 µM | – | – | 111% | 128% | 142% | 191% | >300 mg/kg | – | – | – | – |
| CCCn1c(=O)n2c(-c3ccc(OC)cc3)nnc2c2c1ncn2C [Compound 9, 6,9-Dihydro-3-(4-methoxyphenyl)-9-methyl-6-n-propyl-5H-1,2,4-triazolo[3,4-i]purin-5-one] | 7.8 µM | – | – | 157% | 139% | 219% | 253% | >300 mg/kg | – | – | – | – |
| CCCCn1c(=O)n2c(-c3ccncc3)nnc2c2[nH]cnc21 [Compound 38, 6-n-Butyl-6,9-dihydro-3-(4-pyridyl)-5H-1,2,4-triazolo-[3,4-i]purin-5-one] | > 40 µM | 401 ± 78 s | 25 mg/kg | 163% | 180% | 293% | 353% | >300 mg/kg | – | – | – | – |
| CCCn1c(=O)n2c(-c3cccc(Cl)c3)nnc2c2c1ncn2C [Compound 11, 3-(3-Chlorophenyl)-6,9-dihydro-9-methyl-6-n-propyl-5H-1,2,4-triazolo[3,4-i]purin-5-one] | > 40 µM | – | 100 mg/kg | 226% | 134% | 302% | 255% | >300 mg/kg | – | – | – | – |
| CCCn1c(=O)n2c(-c3ccco3)nnc2c2c1ncn2C [Compound 5, 6,9-Dihydro-3-(2-furyl)-9-methyl-6-n-propyl-5H-1,2,4-triazolo[3,4-i]purin-5-one] | 0.7 µM | – | 100 mg/kg | – | – | – | – | >300 mg/kg | – | – | – | – |
| CCCn1c(=O)n2c(-c3cccc(OC)c3)nnc2c2c1ncn2C [Compound 8, 6,9-Dihydro-3-(3-methoxyphenyl)-9-methyl-6-n-propyl-5H-1,2,4-triazolo[3,4-i]purin-5-one] | 5.6 µM | – | – | 144% | 122% | 175% | 170% | >300 mg/kg | – | – | – | – |
| CCCCn1c(=O)n2c(=O)[nH]nc2c2c1ncn2C [Compound 51, 6-n-Butyl-9-methyl-2,5,6,9-tetrahydro-3H-1,2,4-triazolo[3,4-i]purin-3,5-dione] | – | – | – | 100% | 152% | 152% | 200% | >300 mg/kg | 37.0 ± 11.2 s | 69.5 ± 16.6 s | 139.9 ± 45.1 s | 166.3 ± 49.9 s |
| CCCn1c(=O)n2c(-c3ccoc3C)nnc2c2c1ncn2C [Compound 6, 6,9-Dihydro-9-methyl-3-(2-methyl-3-furyl)-6-n-propyl-5H-1,2,4-triazolo[3,4-i]purin-5-one] | – | – | 100 mg/kg | 164% | 146% | 240% | 223% | 200 mg/kg | – | – | – | – |
| CCCn1c(=O)n2c(-c3ccncc3)nnc2c2c1ncn2C [Compound 3, 6,9-Dihydro-9-methyl-6-n-propyl-3-(4-pyridyl)-5H-1,2,4-triazolo[3,4-i]purin-5-one] | 0.032 µM | 422 ± 130 s | – | 109% | 196% | 224% | 274% | 100 mg/kg | – | – | – | – |
| CCCn1c(=O)n2c(-c3ccccc3Cl)nnc2c2c1ncn2C [Compound 10, 3-(2-Chlorophenyl)-6,9-dihydro-9-methyl-6-n-propyl-5H-1,2,4-triazolo[3,4-i]purin-5-one] | 18 µM | – | – | 124% | 109% | 134% | 162% | 300 mg/kg | – | – | – | – |
| CCCn1c(=O)n2c(-c3ccccc3)nnc2c2[nH]cnc21 [Compound 30, 6,9-Dihydro-3-phenyl-6-n-propyl-5H-1,2,4-triazolo[3,4-i]purin-5-one] | 0.76 µM | – | 10 mg/kg | 177% | 124% | 220% | 204% | 300 mg/kg | – | – | – | – |
| Cn1c(=O)c2[nH]cnc2n(C)c1=O [Theophylline, reference compound] | 23 µM | 414 ± 47 s | 100 mg/kg | – | – | – | – | – | – | – | – | – |
| CCCn1c(=O)n2c(C)nnc2c2c1ncn2C [Compound 24, 6,9-Dihydro-3,9-dimethyl-6-n-propyl-5H-1,2,4-triazolo-[3,4-i]purin-5-one] | – | – | 100 mg/kg | 123% | 168% | 148% | 160% | 300 mg/kg | – | – | – | – |
| CCCn1c(=O)n2c(-c3cccnc3)nnc2c2c1ncn2C [Compound 4, 6,9-Dihydro-9-methyl-6-n-propyl-3-(3-pyridyl)-5H-1,2,4-triazolo[3,4-i]purin-5-one] | 7.7 µM | 358 ± 65 s | – | 125% | 134% | 167% | 177% | 200 mg/kg | – | – | – | – |
